Test system: SF3B1 K700E mutant cell derived from the HEK293FT cells
Assay: GCV-concentration-dependent cell death, MTT assay, lentiviral HSV-TK (BRD9 intron) in genome-edited cells
Format: cell-based
Conditions: SF3B1 K700E mutant cell (one allele) vs SF3B1 normal cell; GCV 100 to 0.16 μg/mL, 48 hours; FIG. 7
Protocol: In this example, in order to verify the toxicity of a suicide gene in a cell having an SF3B1 K700E mutation in one allele in a genome, as in actual cancer cells, HEK293FT cells were genome-edited and an SF3B1 K700E mutant cell strain was established.
Meanwhile, an HSV-TK expression lentiviral vector containing the BRD9 intron was prepared using the pHR vector shown in SEQ ID NO: 11 (FIGS. 3A and 3B). The lentiviral vector was introduced into the SF3B1 K700E mutant strain and an SF3B1 normal strain as a control, and the number of cells killed by the addition of GCV was quantified using the MTT assay method. A detailed procedure will be shown below. […]
The solubilized solution of the MTT cell number measuring kit (Nacalai Tesque Inc.) was added into the HEK293FT cells at 100 μL/well, and the mixture was incubated at 37° C. After 20 hours, the absorbance at 570 nm (reference wavelength: 655 nm) was measured with the microplate reader.
The number of viable cells was calculated based on a standard curve using the above-mentioned serially diluted HEK293FT cells, and the viability was shown as a ratio when the number of cells in the GCV-free group was 100%. Further, the efficacy was evaluated by comparing the cytotoxicity due to GCV addition in the SF3B1 normal cell with the cytotoxicity of the SF3B1 K700E mutant cell. […]

Substance: suicide gene containing the BRD9 intron: SFFV promoter, HSV-TK inserted with an intron of BRD9 containing no normal acceptor sequence, puromycin resistance gene linked by P2A
- viability (ratio when the number of cells in the GCV-free group was 100%): viability lower than that of the SF3B1 normal cell

Reference: US12521450B2, “DNA, expression vector, transcript, cell, pharmaceutical composition, and medicine” (Hitachi, Ltd., priority 2021, dated 2026)
